Patent US20040132700A1, “Use of fluticasone propionate in the treatment of diseases ameliorated by enhancement of epithelial madrix adhesion such as asthma cystic fibrosis and influenza” (priority 2001, published 2004)

What was measured:
Assay type in all cases: cell-based
16HBe14o- cells [1] = experiment: Pseudomonas aeruginosa elastase (PAE) induced detachment and loss of TER of 16HBe14o- monolayers
Method: (§1) 16HBe14o- cells were grown on transwell clear membranes until they formed an electrically tight monolayer. In the absence of serum, the cells were treated for 24 hours with FP or vehicle. 5 μg/ml human sputum elastase (HSE) or 5 μg/ml Pseudomonas Aeruginosa elastase (PAE) was then added to the basolateral surface of the cells. The transepithelial resistance (TER) and the morphology of the monolayers were monitored over the next 24 hours.
(§2) When HSE was added to the basal surface of the both the 16HBE14o- and primary bronchial epithelial cells it caused a lowering of TER and formation of holes in the cell monolayers. […] When the cells were treated with PAE, the monolayer detached from the underlying membrane as a complete sheet. It took 4 hours for all of the control cultures treated with PAE to become detached whereas it took 8 hours for all of the FP pretreated cultures to become detached.

[2] = test system: human primary bronchial epithelial cells; experiment: human sputum elastase (HSE) induced hole formation and loss of TER in primary bronchial epithelial cells
Method: as §1, §2

16HBe14o- cells [3] = experiment: human sputum elastase (HSE) induced hole formation and loss of TER in 16HBe14o- monolayers
Method: as §1, §2

16HBE epithelial cells = experiment: mechanical wounding of confluent 16HBE epithelial cultures, wound area; settings: 16HBE cultures, various steroid concentrations for 24 h or 48 h before wounding (FIG. 7), versus control cultures
Method: To study the effect of FP on protection from mechanical damage, multiple concentric wounds were generated in multiwell plates, thus achieving a large total wound length for analysis. 10^4 cells in 0.2 ml of growth medium containing 5% steroid-free FCS were added to wells in 96 well plates and cultured until confluent with regular changes of growth medium. Cultures were incubated for a further 24 h or 48 h before wounding. After wounding, cultures were rinsed in PBS, fixed at room temperature in methanol/acetone (50/50), air dried and then stained with 0.1% crystal violet. Wound areas were determined using a Leica Q550IW image analysis system. […] The steroid effects were obvious at 24 h, but even more marked at 48 h. At the latter time point, control wound size had increased, whilst the highest dose of either steroid had reduced wound size, compared to wounds after 24 h exposure. […] In the control cultures, tearing of the epithelium from the dish surface beyond the area of direct contact with the needle occurs producing a wound width that is much greater than the needle width. In contrast, in steroid treated cultures, wounds become progressively smaller with increasing steroid concentration until the damage area is limited to the epithelium that has had direct contact with the needle.

Question: Which “loss of TER induced by pseudomonas elastase” value (16HBe14o- cells [1]; 16HBe14o- cells (FIG. 5)) does the source give for `CCC(=O)O[C@]1(C(=O)SCF)[C@H](C)C[C@H]2[C@@H]3C[C@H](F)C4=CC(=O)C=C[C@]4(C)[C@@]3(F)[C@@H](O)C[C@@]21C` [FP, S-fluoromethyl 6α, 9β-difluoro-11β-hydroxy-16α-methyl-17α-propionyloxy-3-oxoandrosta-1,4-diene-17β-carbothiate] here?
Answer: Its value is “protective effect”.

Question: What about the “time for all cultures to become detached from the underlying membrane” value (16HBe14o- cells [1]; 16HBe14o- cells, 24 h FP pretreatment, 5 μg/ml PAE basolateral, control cultures 4 hours) of the same compound?
Answer: The value was 8 h.

Question: What about the “loss of TER induced by human sputum elastase” value ([2]; primary bronchial epithelial cells (FIG. 3)) of the same compound?
Answer: The value was “protective effect”.

Question: And the “rate of hole formation in cell monolayer” value ([2]; primary bronchial epithelial cells, FP pretreatment, HSE added to basal surface)?
Answer: The value was “reduction in the rate of hole formation”.

Question: And the “rate of hole formation in cell monolayer” value (16HBe14o- cells [3]; 16HBE14o- cells, 24 h FP pretreatment, 5 μg/ml HSE basolateral, monitored over 24 hours)?
Answer: Its value is “reduction in the rate of hole formation”.

Question: And the “loss of TER induced by HSE” value (16HBe14o- cells [3]; 16HBe14o- cells, after 24 hour incubation with HSE (FIG. 2))?
Answer: Its value is “protective effect”.

Question: What about the “wound size (wound area)” value (16HBE epithelial cells) of the same compound?
Answer: Its value is “dose-related decrease in wound size”.
